Holding throughout (assay type): in vivo
Assay [1] has as its system cotton aphids (Aphis gossypii). The assay can be described thus: Test Method 1: foliar spray on cucumber seedling infested with cotton aphids (Formulation example 1). As to conditions: 120 h, spray 10 mL/seedling, examined after 5 days, 25°C, read-out: controlling value.
For assay [2], the system named is cotton worm (Spodoptera litura). The assay can be described thus: Test Method 3: sprayed cabbage leaves fed to second instar cotton worm. As to conditions: 120 h, second instar larvae, after 5 days, 25°C, read-out: mortality of insects. Here is the method: (§1) The following tests in the test examples below were conducted at 25°C.
Cabbage (Brassicae oleracea) seedling (on the developmental stage of the second to third true leaf) is planted in a cup, and the diluted solutions are sprayed into the seedling at a ratio of 20 mL/seedling. Thereafter, the stem and leaf thereof are cut out and then is installed into a cup that is covered with filter paper on the bed of the cup. Five (5) cotton worm (Spodoptera litura) at the second instar larval stage are released into the cup. After 5 days, the number of the surviving insects is counted, and the mortality of insects is calculated by the following equation. [formula]

For assay [3], the system named is diamondback moth (Plutella xylostella). The assay can be described thus: Test Method 4: sprayed cabbage leaves fed to second instar diamondback moth. As to conditions: 120 h, second instar larvae, after 5 days, 25°C, read-out: mortality of insects. The protocol:
Next, an efficacy of the present compound on controlling harmful arthropods is shown by Test examples. The following tests in the test examples below were conducted at 25°C.
Test compounds are made to a formulation according to a similar method to that described in the Formulation example 1, and thereto is added water containing 0.03 v/v% of Shindain (registered trademark) to prepare a diluted solution containing a prescribed concentration of the test compound.
Cabbage (Brassicae oleracea) seedling (on the developmental stage of the second to third true leaf) is planted in a cup, and the diluted solutions are sprayed into the seedling at a ratio of 20 mL/seedling. Thereafter, the stem and leaf thereof are cut out and then is installed into a cup that is covered with filter paper on the bed of the cup. Five (5) diamondback moth (Plutella xylostella) at the second instar larval stage are released into the cup. After 5 days, the number of the surviving insects is counted, and the mortality of insects is calculated by the following equation. [formula]

For assay [4], the system named is cotton worm (Spodoptera litura). The assay can be described thus: Test Method 9: sprayed cabbage seedling, third instar cotton worm (Formulation example 5). As to conditions: 144 h, third instar larvae, after 6 days, 25°C, read-out: controlling value. The protocol:
as §1
Cabbage (Brassicae oleracea) seedling (on the developmental stage of the third to fourth true leaf) is planted in a cup, and the diluted solutions are sprayed into the seedling at a ratio of 20 mL/seedling. Thereafter, ten (10) cotton worm (Spodoptera litura) at the third instar larval stage are released onto the seedling. After 6 days, the number of the surviving insects is counted, and the mortality of insects is calculated by the following equation. [formula]

Assay [5] relates to diamondback moth (Plutella xylostella). The assay can be described thus: Test Method 10: sprayed cabbage seedling, third instar diamondback moth (Formulation example 5). As to conditions: 144 h, third instar larvae, after 6 days, 25°C, read-out: controlling value. The protocol: as §1
Cabbage (Brassicae oleracea) seedling (on the developmental stage of the third to fourth true leaf) is planted in a cup, and the diluted solutions are sprayed into the seedling at a ratio of 20 mL/seedling. Thereafter, ten (10) diamondback moth (Plutella xylostella) at the third instar larval stage are released onto the seedling. After 6 days, the number of the surviving insects is counted, and the mortality of insects is calculated by the following equation. [formula]

Assay [6] concerns cotton aphids (Aphis gossypii). Put plainly: Test Method 11: foliar spray on cucumber seedling infested with cotton aphids (Formulation example 5). As to conditions: 120 h, spray 10 mL/seedling, examined after 5 days, 25°C, read-out: controlling value.

Where only a bound is given, the exact number is not on record here.

Take `CCSc1c(C(=O)N(C)c2nc3ccc(F)cc3s2)nc2ccc(I)cn12` [compound 2]: the mortality at 500 ppm in assay [1] was at least 90%; in assay [2], at least 80%; in assay [3] it was at least 80%.
As for `CCSc1c(C(=O)N(C)c2nc3cc(F)ccc3s2)nc2ccc(I)cn12` [compound 3], the mortality at 500 ppm in assay [2] and in assay [3] was at least 80% each time.
Regarding `CCSc1c(C(=O)N(C)c2nc3cccc(F)c3o2)nc2ccc(I)cn12` [compound 18], the mortality at 500 ppm in assay [1] was at least 90%; in assay [3], at least 80%.
Take `CCS(=O)(=O)c1c(C(=O)N(C)c2nc3cc(F)ccc3s2)nc2ccc(I)cn12` [compound 24]: the mortality at 500 ppm in assay [1] was at least 90%; in assay [2], at least 80%; in assay [3], at least 80%. For the same compound, the mortality at 50 ppm in assay [4] is at least 80%; in assay [5] it was at least 80%; in assay [6], at least 90%. The mortality at 200 ppm is at least 80% in assay [4], at least 80% in assay [5] and at least 90% in assay [6].
`CCS(=O)(=O)c1c(C(=O)N(C)c2nc3cccc(Cl)c3s2)nc2ccc(I)cn12` [compound 27]: the mortality at 500 ppm in assay [1] was at least 90%; in assay [2], at least 80%. The mortality at 50 ppm in assay [4] is at least 80%; in assay [6], at least 90%. Also, the results for the mortality at 200 ppm in assay [4] and in assay [6] were at least 80% and at least 90%, respectively.
As for `CCS(=O)(=O)c1c(C(=O)N(C)c2nc3ccc(C)cc3s2)nc2ccc(I)cn12` [compound 32], the mortality at 500 ppm in assay [2] and in assay [3] was at least 80% each time. Further, the mortality at 50 ppm in assay [5] is at least 80%. Also, the mortality at 200 ppm in assay [5] is at least 80%.
Turning to `CCS(=O)(=O)c1c(C(=O)N(C)c2nc3cccc(F)c3o2)nc2ccc(I)cn12` [compound 39], the mortality at 500 ppm in assay [3] was at least 80%.
With `CCSc1cccnc1C(=O)N(C)c1nc2cc(C(F)(F)F)ccc2s1` [compound 49], the mortality at 500 ppm in assay [2] and in assay [3] was at least 80% throughout.
`CCS(=O)(=O)c1cccnc1C(=O)N(C)c1nc2cc(C(F)(F)F)ccc2o1` [compound 54]: the mortality at 500 ppm in assay [1] was at least 90%; in assay [3], at least 80%.
Take `CCS(=O)(=O)c1cccnc1C(=O)N(C)c1nc2cc(C(F)(F)F)ccc2s1` [compound 55]: the mortality at 500 ppm is at least 90% in assay [1] and at least 80% in assay [3].
Take `CCS(=O)(=O)c1cc(-c2ccc(C#N)cc2)cnc1C(=O)N(C)c1nc2cc(F)c(F)cc2s1` [compound 60]: the mortality at 500 ppm in assay [3] was at least 80%.
As for `CCSc1c(C(=O)N(C)c2nc3ccc(F)cc3n2C)nc2ccc(I)cn12` [compound 69], the mortality at 500 ppm in assay [1] was at least 90%. Besides, the mortality at 500 ppm in assay [3] is at least 80%. In assay [6], the mortality at 50 ppm is at least 90% and the mortality at 200 ppm is at least 90%.
`CCS(=O)(=O)c1c(C(=O)N(C)c2nc3ccc(F)nc3s2)nc2ccc(I)cn12` [compound 75]: the mortality at 500 ppm was at least 90% in assay [1], at least 80% in assay [2] and at least 80% in assay [3]. The results for the mortality at 200 ppm in assay [4], in assay [5] and in assay [6] were at least 80%, at least 80% and at least 90%, respectively.
Consider `CCS(=O)(=O)c1c(C(=O)N(C)c2nc3ccc(F)cc3n2C)nc2ccc(I)cn12` [compound 78], for which the values for the mortality at 500 ppm in assay [1], in assay [2] and in assay [3] were at least 90%, at least 80% and at least 80%, respectively. The mortality at 200 ppm was at least 80% in assay [5] and at least 90% in assay [6]. The mortality at 50 ppm in assay [6] is at least 90%.
Consider `CCS(=O)(=O)c1c(C(=O)N(C)c2nc3cc(F)cc(F)c3s2)nc2ccc(I)cn12` [compound 80], for which the mortality at 500 ppm in assay [2] and in assay [3] was at least 80% each time. For the same compound, the mortality at 200 ppm in assay [4] and in assay [5] was at least 80% each time.
In the case of `CCS(=O)(=O)c1c(C(=O)N(C)c2nc3cc(F)c(Cl)cc3s2)nc2ccc(I)cn12` [compound 81], the mortality at 500 ppm in assay [3] was at least 80%.
Regarding `CCN(C(=O)c1nc2ccc(I)cn2c1S(=O)(=O)CC)c1nc2cc(F)c(F)cc2s1` [compound 96], the mortality at 500 ppm is at least 90% in assay [1], at least 80% in assay [2] and at least 80% in assay [3]. Besides, the mortality at 50 ppm in assay [6] was at least 90%. Besides, in assay [6], the mortality at 200 ppm was at least 90%.
Turning to `CCS(=O)(=O)c1c(C(=O)N(CC#N)c2nc3cc(F)c(F)cc3s2)nc2ccc(I)cn12` [compound 98], the mortality at 500 ppm in assay [3] is at least 80%.
As to `C#CCN(C(=O)c1nc2ccc(I)cn2c1S(=O)(=O)CC)c1nc2cc(F)c(F)cc2s1` [compound 99], the mortality at 500 ppm in assay [3] is at least 80%.
Take `CCS(=O)(=O)c1cc(-n2cc(Cl)cn2)cnc1C(=O)N(C)c1nc2cc(F)c(F)cc2s1` [compound 112]: the mortality at 500 ppm in assay [2] and in assay [3] was at least 80% throughout. Further, the mortality at 50 ppm in assay [4] is at least 80%. In addition, the mortality at 200 ppm in assay [4] and in assay [5] was at least 80% in each case.
Turning to `CCS(=O)(=O)c1cccnc1C(=O)N(C)c1nc2cc(F)c(F)cc2s1` [compound 114], the mortality at 500 ppm in assay [2] and in assay [3] was at least 80% each time.
On to `CCS(=O)(=O)c1cc(C(F)(F)F)ccc1C(=O)N(C)c1nc2cc(F)c(F)cc2s1` [compound 120], for which the mortality at 500 ppm in assay [2] and in assay [3] was at least 80% throughout. For the same compound, the mortality at 50 ppm in assay [4] and in assay [5] was at least 80% each time. For the same compound, the mortality at 200 ppm in assay [4] and in assay [5] was at least 80% in each case.
Turning to `CCCOc1cnc(C(=O)N(C)c2nc3cc(F)c(F)cc3s2)c(S(=O)(=O)CC)c1` [compound 126], the mortality at 500 ppm in assay [2] and in assay [3] was at least 80% throughout. In assay [4], the mortality at 50 ppm is at least 80%. Besides, the mortality at 200 ppm in assay [4] was at least 80%; in assay [5], at least 80%; in assay [6] it was at least 90%.
Turning to `CCS(=O)(=O)c1ccc(-c2ccccn2)nc1C(=O)N(C)c1nc2cc(F)c(F)cc2s1` [compound 133], the mortality at 500 ppm in assay [2] and in assay [3] was at least 80% throughout. Also, in assay [4], the mortality at 50 ppm is at least 80%. The figures for the mortality at 200 ppm in assay [4], in assay [5] and in assay [6] were at least 80%, at least 80% and at least 90%, respectively.
With `CCS(=O)(=O)c1ccc(Nc2ccc(C)cc2)nc1C(=O)N(C)c1nc2cc(F)c(F)cc2s1` [compound 137], the mortality at 500 ppm in assay [3] was at least 80%.
For `CCS(=O)(=O)c1c(C(=O)N(C)c2nc3cc(F)c(F)cc3s2)nc(Br)n1C` [compound 140], in assay [3], the mortality at 500 ppm was at least 80%. For the same compound, the mortality at 200 ppm in assay [5] is at least 80%.
On to `CCS(=O)(=O)c1c(C(=O)N(C)c2nc3cc(F)c(F)cc3s2)nc(-c2cnn(C(F)F)c2)n1C` [compound 143], for which the mortality at 500 ppm in assay [2] and in assay [3] was at least 80% throughout.
As for `CCS(=O)(=O)c1c(C(=O)N(C)c2nc3cc(Cl)c(F)cc3s2)nn(C)c1C1CC1` [compound 145], the mortality at 500 ppm in assay [3] was at least 80%. Further, the mortality at 200 ppm in assay [5] was at least 80%.

The record behind these values is patent EP4722205A1, “HETEROCYCLIC COMPOUND AND NOXIOUS ARTHROPOD-CONTROLLING COMPOSITION CONTAINING SAME” (Sumitomo Chemical Company, Limited, priority 2023, dated 2024).
